Measurements published in US6737383B1, “Herbicidal oxadiazolidines” (priority 1999, dated 2004).

Assays:
bedstraw = assay: Test B pre/postemergence bedstraw; type: in vivo, Galium aparine
Procedure, shortened: (§1)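 Test chemicals in a non-phytotoxic solvent mixture with surfactant were sprayed preemergence onto planted seeds and postemergence onto plants 2 to 18 cm tall (1- to 4-leaf stage). After twelve to sixteen days in a greenhouse, injury was visually rated against untreated controls from 0 (no effect) to 10 (complete control).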

blackgrass = assay: Test B pre/postemergence blackgrass; type: in vivo, Alopecurus myosuroides
Procedure, shortened: as §1

surinam grass = assay: Test B pre/postemergence surinam grass; type: in vivo, Brachiaria decumbens
Procedure, shortened: as §1

cocklebur = assay: Test B pre/postemergence cocklebur; type: in vivo, Xanthium strumarium; conditions: for Cocklebur plant response rating: scale of 0 to 10 where 0 is no effect and 10 is complete control
Procedure, shortened: as §1

corn = assay: Test B pre/postemergence corn; type: in vivo, Zea mays; conditions: for Corn plant response rating: scale of 0 to 10 where 0 is no effect and 10 is complete control
Procedure, shortened: as §1

crabgrass = assay: Test B pre/postemergence crabgrass; type: in vivo, Digitaria sanguinalis; conditions: for Crabgrass plant response rating: scale of 0 to 10 where 0 is no effect and 10 is complete control
Procedure, shortened: as §1

giant foxtail = assay: Test B pre/postemergence giant foxtail; type: in vivo, Setaria faberii; conditions: for Giant foxtail plant response rating: scale of 0 to 10 where 0 is no effect and 10 is complete control
Procedure, shortened: as §1

morningglory = assay: Test B pre/postemergence morningglory; type: in vivo, Ipomoea hederacea; conditions: for Morningglory plant response rating: scale of 0 to 10 where 0 is no effect and 10 is complete control
Procedure, shortened: as §1

pigweed = assay: Test B pre/postemergence pigweed; type: in vivo, Amaranthus retroflexus; conditions: for Redroot pigweed plant response rating: scale of 0 to 10 where 0 is no effect and 10 is complete control
Procedure, shortened: as §1

rape = assay: Test B pre/postemergence rape; type: in vivo, Brassica napus; conditions: for Rape plant response rating: scale of 0 to 10 where 0 is no effect and 10 is complete control
Procedure, shortened: as §1

soybean = assay: Test B pre/postemergence soybean; type: in vivo, Glycine max; conditions: for Soybean plant response rating: scale of 0 to 10 where 0 is no effect and 10 is complete control
Procedure, shortened: as §1

sugar beet = assay: Test B pre/postemergence sugar beet; type: in vivo, Beta vulgaris; conditions: for Sugarbeets plant response rating: scale of 0 to 10 where 0 is no effect and 10 is complete control
Procedure, shortened: as §1

velvetleaf = assay: Test B pre/postemergence velvetleaf; type: in vivo, Abutilon theophrasti; conditions: for Velvetleaf plant response rating: scale of 0 to 10 where 0 is no effect and 10 is complete control
Procedure, shortened: as §1

wheat = assay: Test B pre/postemergence wheat; type: in vivo, Triticum aestivum; conditions: for Wheat plant response rating: scale of 0 to 10 where 0 is no effect and 10 is complete control
Procedure, shortened: as §1

wild oat = assay: Test B pre/postemergence wild oat; type: in vivo, Avena fatua; conditions: for Wild oats plant response rating: scale of 0 to 10 where 0 is no effect and 10 is complete control
Procedure, shortened: as §1

purple nutsedge = assay: Test B pre/postemergence purple nutsedge; type: in vivo, Cyperus rotundus; conditions: for Nutsedge plant response rating: scale of 0 to 10 where 0 is no effect and 10 is complete control
Procedure, shortened: as §1

rice = assay: Test B flood test rice; type: in vivo, Oryza sativa
Procedure, shortened: (§2)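 Plants were grown to the 2-leaf stage before treatment with test chemical, then held in a greenhouse for twelve to sixteen days. Injury was visually rated against untreated controls on a 0–10 scale, where 0 is no effect and 10 is complete control.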

smallflower flatsedge = assay: Test B flood test smallflower flatsedge; type: in vivo, Cyperus difformis
Procedure, shortened: as §2

duck salad = assay: Test B flood test duck salad; type: in vivo, Heteranthera limosa
Procedure, shortened: as §2

bamyardgrass = assay: Test B flood test barnyardgrass; type: in vivo, Echinochloa crus-galli
Procedure, shortened: as §2

[1] = Postemergence, Rate 125 g/ha, scale 0 to 10, 0 is no effect, 10 is complete control
[2] = Preemergence, Rate 62 g/ha, scale 0 to 10 (0 no effect, 10 complete control)
[3] = Rate 62 g/ha, Postemergence, scale of 0 to 10 where 0 is no effect and 10 is complete control
[4] = Rate 250 g/ha, Postemergence, scale of 0 to 10 where 0 is no effect and 10 is complete control
[5] = Rate 500 g/ha, Postemergence, scale 0 to 10, 0 no effect, 10 complete control
[6] = Preemergence, Rate 250 g/ha, scale of 0 to 10 where 0 is no effect and 10 is complete control
[7] = Preemergence, Rate 500 g/ha, scale of 0 to 10 where 0 is no effect and 10 is complete control
[8] = Postemergence (flood test), Rate 125 g/ha, scale 0 to 10, 0 is no effect, 10 is complete control
[9] = Rate 62 g/ha, Postemergence (flood test species), scale of 0 to 10 where 0 is no effect and 10 is complete control
[10] = Rate 500 g/ha, listed under Postemergence (flood test species), scale 0 to 10, 0 no effect, 10 complete control

Cc1c(-n2c(=O)on(C(=O)N(c3ccccc3)C(C)C)c2=O)ccc2ccccc12 [Compound 344]
Plant response rating, Bedstraw (bedstraw; [1]): 0 | Plant response rating, Bedstraw (bedstraw; [2]): 0 | Bedstraw plant response rating (0 to 10 scale) (bedstraw; Preemergence, Rate 125 g/ha): 0 | Bedstraw plant response rating (bedstraw; [3]): 0 | Plant response rating, Bedstraw (bedstraw; [4]): 0 | Plant response rating, Bedstraw (bedstraw; [5]): 0 | Plant response rating, Blackgrass (blackgrass; [1]): 0 | Plant response rating, Blackgrass (blackgrass; [2]): 0 | Blackgrass plant response rating (0 to 10 scale) (blackgrass; Preemergence, Rate 125 g/ha): 0 | Blackgrass plant response rating (blackgrass; [6]): 0 | Blackgrass plant response rating (blackgrass; [7]): 0 | Blackgrass plant response rating (blackgrass; [3]): 0 | Plant response rating, Blackgrass (blackgrass; [4]): 0 | Plant response rating, Blackgrass (blackgrass; [5]): 0 | Plant response rating, B. signalgrass (surinam grass; [1]): 0 | Plant response rating, B. signalgrass (surinam grass; [2]): 0 | B. signalgrass plant response rating (0 to 10 scale, 0 is no effect, 10 is complete control) (surinam grass; Preemergence, Rate 125 g/ha): 0 | B. signalgrass plant response rating (surinam grass; [6]): 0 | B. signalgrass plant response rating (surinam grass; [7]): 0 | B. signalgrass plant response rating (surinam grass; [3]): 0 | Plant response rating, B. signalgrass (surinam grass; [4]): 0 | Plant response rating, B. signalgrass (surinam grass; [5]): 0 | Plant response rating, Cocklebur (cocklebur; [1]): 0 | Plant response rating, Cocklebur (cocklebur; [2]): 0 | Cocklebur plant response rating (0 to 10 scale) (cocklebur; Preemergence, Rate 125 g/ha): 0 | Cocklebur plant response rating (cocklebur; Preemergence, Rate 250 g/ha): 0 | Cocklebur plant response rating (cocklebur; Preemergence, Rate 500 g/ha): 0 | Cocklebur plant response rating (cocklebur; Rate 62 g/ha, Postemergence): 0 | Plant response rating, Cocklebur (cocklebur; [5]): 0 | Plant response rating, Corn (corn; [1]): 0 | Plant response rating, Corn (corn; [2]): 0 | Corn plant response rating (0 to 10 scale) (corn; Preemergence, Rate 125 g/ha): 0 | Corn plant response rating (corn; Preemergence, Rate 250 g/ha): 0 | Corn plant response rating (corn; Preemergence, Rate 500 g/ha): 0 | Corn plant response rating (corn; Rate 62 g/ha, Postemergence): 0 | Plant response rating, Corn (corn; [5]): 0 | Plant response rating, Crabgrass (crabgrass; [1]): 0 | Plant response rating, Crabgrass (crabgrass; [2]): 0 | Crabgrass plant response rating (0 to 10 scale) (crabgrass; Preemergence, Rate 125 g/ha): 0 | Crabgrass plant response rating (crabgrass; Preemergence, Rate 250 g/ha): 0 | Crabgrass plant response rating (crabgrass; Preemergence, Rate 500 g/ha): 1 | Crabgrass plant response rating (crabgrass; Rate 62 g/ha, Postemergence): 0 | Plant response rating, Crabgrass (crabgrass; [5]): 0 | Plant response rating, Giant foxtail (giant foxtail; [1]): 0 | Plant response rating, Giant foxtail (giant foxtail; [2]): 0 | Giant foxtail plant response rating (0 to 10 scale) (giant foxtail; Preemergence, Rate 125 g/ha): 2 | Giant foxtail plant response rating (giant foxtail; Preemergence, Rate 250 g/ha): 3 | Giant foxtail plant response rating (giant foxtail; Preemergence, Rate 500 g/ha): 8 | Giant foxtail plant response rating (giant foxtail; Rate 62 g/ha, Postemergence): 0 | Plant response rating, Giant foxtail (giant foxtail; [5]): 0 | Plant response rating, Morningglory (morningglory; [1]): 0 | Plant response rating, Morningglory (morningglory; [2]): 0 | Morningglory plant response rating (0 to 10 scale) (morningglory; Preemergence, Rate 125 g/ha): 0 | Morningglory plant response rating (morningglory; Preemergence, Rate 250 g/ha): 0 | Morningglory plant response rating (morningglory; Preemergence, Rate 500 g/ha): 0 | Morningglory plant response rating (morningglory; Rate 62 g/ha, Postemergence): 0 | Plant response rating, Morningglory (morningglory; [5]): 0 | Plant response rating, Redroot pigweed (pigweed; [1]): 0 | Plant response rating, Redroot pigweed (pigweed; [2]): 0 | Redroot pigweed plant response rating (0 to 10 scale) (pigweed; Preemergence, Rate 125 g/ha): 0 | Redroot pigweed plant response rating (pigweed; Preemergence, Rate 250 g/ha): 0 | Redroot pigweed plant response rating (pigweed; Preemergence, Rate 500 g/ha): 0 | Redroot pigweed plant response rating (pigweed; Rate 62 g/ha, Postemergence): 0 | Plant response rating, Redroot pigweed (pigweed; [5]): 2 | Plant response rating, Rape (rape; [1]): 0 | Plant response rating, Rape (rape; [2]): 0 | Rape plant response rating (0 to 10 scale) (rape; Preemergence, Rate 125 g/ha): 0 | Rape plant response rating (rape; Preemergence, Rate 250 g/ha): 0 | Rape plant response rating (rape; Rate 62 g/ha, Postemergence): 0 | Plant response rating, Rape (rape; [5]): 0 | Plant response rating, Soybean (soybean; [1]): 2 | Plant response rating, Soybean (soybean; [2]): 0 | Soybean plant response rating (0 to 10 scale) (soybean; Preemergence, Rate 125 g/ha): 0 | Soybean plant response rating (soybean; Preemergence, Rate 250 g/ha): 0 | Soybean plant response rating (soybean; Preemergence, Rate 500 g/ha): 0 | Soybean plant response rating (soybean; Rate 62 g/ha, Postemergence): 2 | Plant response rating, Soybean (soybean; [5]): 2 | Plant response rating, Sugarbeets (sugar beet; [1]): 0 | Plant response rating, Sugarbeets (sugar beet; [2]): 0 | Sugarbeets plant response rating (0 to 10 scale) (sugar beet; Preemergence, Rate 125 g/ha): 0 | Sugarbeets plant response rating (sugar beet; Preemergence, Rate 250 g/ha): 0 | Sugarbeets plant response rating (sugar beet; Preemergence, Rate 500 g/ha): 0 | Sugarbeets plant response rating (sugar beet; Rate 62 g/ha, Postemergence): 0 | Plant response rating, Sugarbeets (sugar beet; [5]): 0 | Plant response rating, Velvetleaf (velvetleaf; [1]): 0 | Plant response rating, Velvetleaf (velvetleaf; [2]): 0 | Velvetleaf plant response rating (0 to 10 scale) (velvetleaf; Preemergence, Rate 125 g/ha): 0 | Velvetleaf plant response rating (velvetleaf; Preemergence, Rate 250 g/ha): 0 | Velvetleaf plant response rating (velvetleaf; Preemergence, Rate 500 g/ha): 0 | Velvetleaf plant response rating (velvetleaf; Rate 62 g/ha, Postemergence): 0 | Plant response rating, Velvetleaf (velvetleaf; [5]): 0 | Plant response rating, Wheat (wheat; [1]): 0 | Plant response rating, Wheat (wheat; [2]): 0 | Wheat plant response rating (0 to 10 scale) (wheat; Preemergence, Rate 125 g/ha): 0 | Wheat plant response rating (wheat; Preemergence, Rate 250 g/ha): 0 | Wheat plant response rating (wheat; Preemergence, Rate 500 g/ha): 0 | Wheat plant response rating (wheat; Rate 62 g/ha, Postemergence): 0 | Plant response rating, Wheat (wheat; [5]): 0 | Plant response rating, Wild oats (wild oat; [1]): 0 | Plant response rating, Wild oats (wild oat; [2]): 0 | Wild oats plant response rating (0 to 10 scale) (wild oat; Preemergence, Rate 125 g/ha): 0 | Wild oats plant response rating (wild oat; Preemergence, Rate 250 g/ha): 0 | Wild oats plant response rating (wild oat; Preemergence, Rate 500 g/ha): 0 | Wild oats plant response rating (wild oat; Rate 62 g/ha, Postemergence): 0 | Plant response rating, Wild oats (wild oat; [5]): 0 | Plant response rating, Nutsedge (purple nutsedge; [1]): 0 | Plant response rating, Nutsedge (purple nutsedge; [2]): 0 | Nutsedge plant response rating (0 to 10 scale) (purple nutsedge; Preemergence, Rate 125 g/ha): 0 | Nutsedge plant response rating (purple nutsedge; Preemergence, Rate 250 g/ha): 0 | Nutsedge plant response rating (purple nutsedge; Preemergence, Rate 500 g/ha): 0 | Nutsedge plant response rating (purple nutsedge; Rate 62 g/ha, Postemergence): 0 | Plant response rating, Nutsedge (purple nutsedge; [5]): 0 | Plant response rating, Rice (rice; [8]): 0 | Rice plant response rating (rice; [9]): 0 | Plant response rating, Rice (rice; [10]): 0 | Plant response rating, S. Flatsedge (smallflower flatsedge; [8]): 0 | S. Flatsedge plant response rating (smallflower flatsedge; [9]): 0 | Plant response rating, S. Flatsedge (smallflower flatsedge; [10]): 0 | Plant response rating, Ducksalad (duck salad; [8]): 0 | Ducksalad plant response rating (duck salad; [9]): 0 | Plant response rating, Ducksalad (duck salad; [10]): 0 | Plant response rating, Barnyardgrass (bamyardgrass; [8]): 0 | Barnyardgrass plant response rating (bamyardgrass; [9]): 0 | Plant response rating, Barnyardgrass (bamyardgrass; Rate 250 g/ha, Postemergence (flood test species), scale of 0 to 10 where 0 is no effect and 10 is complete control): 0 | Plant response rating, Barnyardgrass (bamyardgrass; [10]): 0
